{"source": "patent US9546144B2", "about": "“Bifunctional compounds” (University of Pittsburgh—of the Commonwealth System of …, priority 2011, dated 2017)", "key": {"[1]": {"experiment": "log P by shake-flask method", "format": "physicochemical", "settings": "n-octanol/water, rt (23.5° C.), average of 3 trials, read-out: log P (octanol-water partition coefficient)", "procedure": "Determination of log P Value of 3.\nThe log P (octanol-water partition coefficient) was determined using the shake-flask method. Three determinations were made. A representative procedure is as follows: a 250-mL separatory funnel was charged with a solution of 3 (50.0 mg) in water (50.0 mL) and n-octanol (50.0 mL). The funnel was capped and inverted 100 times. The funnel and contents were left to stand at rt (23.5° C.) for 40 h. Aliquots of both phases were analyzed by UV/VIS (214 nm for the aqueous layer and 218 nm for the octanol layer), and the concentration in each layer was determined using previously generated calibration curves. In the case of the aqueous layer, a 10-fold dilution was necessary prior to measurement. All measurements were run in triplicate. The log P was determined as log ([3]octanol/[3]aqueous), and the average log P value from the 3 trials was −0.87."}, "[2]": {"tested_on": "luc+ bone marrow chimeric C57BL/6 mice", "experiment": "migration of luc+ marrow cells to irradiated lungs of luc+ marrow chimeric mice", "format": "in vivo, mouse", "settings": "in drinking water, after second thoracic irradiation dose", "procedure": "FIG. 14. Pulmonary migration of luc+ marrow cells to irradiated lungs of luc+ chimeric mice. Groups of 30 C57BL/6Tac mice were given 10 Gy TBI then 24 hr. later 1×10^7 luc+ bone marrow cells I.V. At day 63, subgroups received 18 Gy thoracic irradiation. […] Mice were serially imaged for luciferase, as described in the methods.\nMMS350 was tested in two mouse models of fibrosis in the C57BL/6J model. In the first system (chimeric mice) C57BL/6 mice were irradiated to a total body dose of 10 Gy, which is known to be lethal for 100% of animals in the absence of bone marrow transplantation. These mice were then transplanted intravenously with luciferase positive C57BL/6J mouse bone marrow. These mice are valuable for measuring the site of hematopoiesis from donor origin marrow since the animals can be imaged for mobilization in a specific imaging system, which detects the luciferase signal. In this assay system, animals are injected with luciferin (the substrate for the enzyme luciferase) bone marrow cells, which contain luciferase (those from the donor marrow strain) metabolize luciferin and produce a […] which is detected in a camera system over the immobilized mice. These same animals can be imaged serially over several weeks-months and followed for migration of luciferase positive cells from bone marrow sites into irradiated sites. […]"}, "[3]": {"tested_on": "32D cl 3 cells", "experiment": "irradiated 32D cl 3 cells, cell number and viability", "format": "cell-based", "settings": "10 μM, 0-7 Gy, Day 3 or 5 after irradiation", "procedure": "FIG. 10. The data are from a screening experiment where 32D cl 3 cells were irradiated to doses of 0, 1, 3, 5, or 7 Gy and placed in T25 flasks. Either JP4-039 or MM350 were added at 10 μM and incubated in a CO2 incubator at 37° C. At Day 3 or 5 after irradiation, the cells were counted and the viability determined."}, "[4]": {"experiment": "storage in 25% w/w solutions of 3 and NMP", "format": "physicochemical", "settings": "25% w/w 3 and NMP at −20° C.", "procedure": "Because sulfoxide 3 is a solid, it would have to be mixed with an appropriate water-soluble cosolvent to act as a compound storage additive. NMP was chosen for exploring this potential application due to its thermal stability and low toxicity. […] The compound test set (FIG. 2) was stored in 25% w/w solutions of 3 and NMP for 6 weeks at −20° C."}}}
{"smiles": "CC1(C[S+]([O-])CC2(C)COC2)COC1", "note": "[compound 3, 3,3′-Sulfinylbis(methylene)bis(3-methyloxetane)]", "values": [{"measurement": "logP at 40 h", "setting": "[1]", "result": -0.87}, {"measurement": "migration of bone marrow cells into the lungs", "setting": "[2]", "result": "significantly reduces migration of bone marrow cells into the lungs"}, {"measurement": "number of cells and viability after irradiation", "setting": "[3]", "result": "comparable to JP4-039"}, {"measurement": "behaviour of 3 in the storage solution", "setting": "[4]", "result": "partly precipitated from the solution"}]}
